“Also recorded” adds a separate entry of the source.
Experiments:
[1] = patients, SR-MDMA paired psychotherapy; 25% in placebo group; cited from earlier work
SERT [2] = target: T1, SERT (Homo sapiens, UniProt P31645); details: other studies; cited from earlier work
T1 construct: host or cells: HEK293T cells, transient transfection with Lipofectamine 3000

5-HT2A biosensor = assay: psychLight 5-HT2A biosensor in cultured cortical neurons; type: cell-based; details: DIV 10-14 rat cortical neurons, 10 uM, vs vehicle
Description: E18 rat cortical neurons were plated at 60,000 cells/well in glass 96-well plates (P96-1.5H-N, Cellvis) coated with poly-D-lysine (Sigma, P6407-5MG). At day in vitro (DIV) 3-7 neurons were infected with AAV9_hSynapsin_psychLight2 (Neurophotonics-Viral Vector Core) or AAV9-hsyn-GRAB_5-HT1.0 (Addgene, 140552-AAV9) at an MOI of 70,000. Neurons were kept in the incubator for one week to allow for viral expression. On imaging day (DIV 10-14), media was aspirated and wells were washed (1×200 μL) with HBSS supplemented with 2 mM MgCl2 and 2 mM CaCl2. 50 μL HBSS was added to the wells of the assay plate and then imaged on a CellInsight CX7 HCA Platform (Thermo Fisher, CX7A1110) configured with a onstage incubator for live cell imaging (Thermo Fisher, NX7LIVE001) at 40×(N.A.=0.60) with 25 regions of interest (ROI) taken per well using an arbitrary ROI pattern for each well with no bias to location and no overlap of the ROIs (exposure=400 ms, LED power=100%). […]
Images were then analyzed using ImageJ by selecting ROIs surrounding individual neuronal cell bodies of the post-treatment images and recording the mean fluorescence, the same ROIs were applied to the pretreatment images to record the mean fluorescence. The […] values were calculated as previously reported.

[3] = Cued fear conditioning / fear extinction; type: in vivo, mice; details: for fear extinction test curve vs vehicle: 12.5 and 25 mg/kg curves; for freezing during extinction training (day 2): 12.5 and 25 mg/kg i.p. 30-min before extinction training; for conditioned freezing on extinction testing day (24-hours later, drug-free): treatment i.p. 30-min before extinction training on day 2, 16 CS tones
Source text: Mice were exposed to cued fear conditioning on day 1, fear extinction training on day 2 and extinction testing on Day 3. Mice were habituated to handling for 3 days before experimentation. On the day of the experiment mice were allowed to habituate to the behavior room for 1-hour before beginning the experiment. 15-minutes before starting the experiment, mice were separated out into individual holding cages.
Cued fear conditioning consisted of six pairings of a CS auditory cue (80-85 dB white noise, 15 s) and a co-terminating US footshock (0.85 mA and 2 s), each spaced 1.5 minutes apart. The fear conditioning apparatus (Med Associates model #MED-VFC2-SCT-R) consisted of a 30.5 cm×24.1 cm×21 cm internal soundproof chamber, with metal grated floors, an infrared camera, a sound generator, and a light source. Mice were initially placed in the conditioning apparatus and the first 1.5 minutes were stimulus free. After the last shock, the animals remained in the chambers for an additional 2 min before being returned to their home cages. […] Freezing responses for fear conditioning (day 1) are presented as the percentage of time spent freezing during the last 1.5 minutes after the last shock. The apparatus was cleaned with 70% EtOH in between trials.
Cued fear memory was assessed by exposing the animals to a novel context (lights off, A-frame insert, smooth plastic floor insert, additional vanilla odor) for 2 min prior to 16 presentations of auditory cues (80 dB white noise, 15 s) spaced 15 s apart. Freezing responses for cue testing (day 2 and 3) are presented as the percentage of time spent freezing during the tone presentations. The procedure was repeated on day 3 in the absence of drug.
Fear conditioning experiments were performed between the hours of 08:00-11:00. Freezing behavior was scored using Med Associates Video Freeze software v2.25 (motion threshold=100 au, detection method=linear, minimum freeze duration=15 frames, which is equal to a 0.5 s freeze). The apparatus was cleaned with 70% EtOH in between trials on day 1 and Sani-cloth gemicidal disposable cloths (PDI, Q89072) were used to clean the apparatus on days 2 and 3.

[4] = Head-twitch response (HTR) assay; type: in vivo, mice; details: first 20-minutes in novel arena; 12.5, 25, 50 mg/kg i.p.
Description: (§1) The head-twitch response assay was performed as described previously using both male and female C57BL/6J mice (3 each per treatment). The mice were obtained from Jackson Laboratory and were approximately 9 weeks old at the time of the experiments. Before injecting the mice, their baseline temperature was measured using an IR thermometer as described. Compounds were administered via intraperitoneal (i.p.) injection (5 ml kg-1) using 0.9% saline as the vehicle. Immediately after the animals were placed in an arena for 30-minutes where their locomotor activity was assessed using AnyMaze automated tracking software. The behavior was also videotaped and later scored by two blind overserves for head-twitch responses, the results were averaged. Upon completion of the novelty induced locomotion assay their temperature was measured at the 30-minute mark. The mice were then transferred to a holding cage with their other treatment matched cage mates and their temperature was measured at the 90 and 120-minute mark.

[5] = Novelty induced locomotion (NIL) test; type: in vivo, mice; details: for locomotion at the lower doses: 12.5 mg/kg and 25 mg/kg; for locomotion at highest dose: 50 mg/kg i.p., vs vehicle; for locomotion (total distance) in novel arena, dose dependence / time spent in the center of the arena: 12.5, 25, 50 mg/kg i.p., 30-minutes
Description: as §1

[6] = Body temperature assay (IR thermometer); type: in vivo, mice; details: for increase in body temperature (hyperthermia): 12.5, 25, 50 mg/kg i.p., measured for 2-hours
Description: as §1

rat cortical neurons [7] = assay: Spinogenesis (dendritic spine density) in mature cortical cultures; type: cell-based; details: for dendritic spine density: DIV 15 rat cortical neurons, 24-hours treatment; for spinogenesis effect after ketanserin pretreatment: KTSN 30-minute pretreatment, 10-fold excess, DIV 15, 24-hours
Description: Spinogenesis experiments were performed as previously described with the exception that cells were treated at DIV14 instead of DIV18 and then fixed on DIV15. The images were taken on a Nikon HCA Confocal microscope a with a 100x/NA 1.45 oil objective. DMSO and ketamine […] were used as vehicle and positive controls, respectively. For blocking experiments, ketanserin was added 30-minutes prior to addition of agonists in 10-fold excess.
(§2) Statistical Analysis. Appropriate samples sizes were estimated based on our previous experiences performing similar experiments. Treatments were randomized, and data were analyzed by experimenters blinded to treatment conditions. All comparisons were planned prior to performing each experiment. Statistical analyses were performed using GraphPad Prism (v.8.1.2). Data are represented as mean±s.e.m., unless otherwise noted, with asterisks indicating *P<0.05, **P<0.01, ***P<0.001 and ****P<0.0001.

SERT [8] = target: T1, SERT; assay: SERT efflux: [3H]5-HT release from SERT expressing HEK293T cells; type: cell-based; details: HEK293T cells transiently expressing SERT, 10 pM-100 uM
Description: HEK293T cells were grown in Dulbecco's Modified Eagle Media (DMEM) supplemented with 10% fetal bovine serum (FBS) and 1% penicillin-streptomycin. 24 hours prior to the experiment, cells were plated in 24-well plates at a density of 150,000 cells/well and concurrently transfected using Lipofectamine 3000 according to the manufacturer's protocol. Cells were transfected with hSERT-N1-pEYFP (Addgene #70105) or a GFP control plasmid (Lonza pmaxGFP vector). The next day the wells were washed (1×500 μL) with 1× Hank's Balanced Salt Solution supplemented with 2 mM MgCl2 and 2 mM CaCl2 (HBSS) and the plate was placed on a 37° C. water bath for the remainder of the experiment. 250 μL of HBSS containing 10 nM 5-[1,2-3H[N]]-hydroxytryptamine creatinine sulfate (NET498001MC, Lot: 2902700) was added to the wells and incubated for 15 minutes, allowing uptake into SERT expressing HEK cells. Uptake was terminated by aspiration of wells followed by washes (3×500 μL) with HBSS. […] 200 μL of media was collected from each well and placed into a scintillation vial containing 1 mL PerkinElmer Ultima Gold™ scintillation cocktail to serve as the efflux fraction. […] Radioactivity in the form of disintegrations per minute (DPM) was determined the following day with the use of a Beckman LS 6000 liquid scintillation counter. […] The GFP control cells were checked to ensure radioactivity was below background levels.

rat cortical neurons [9] = assay: Dendritogenesis (Sholl analysis) in cultured cortical neurons; type: cell-based; details: for dendritic complexity (Sholl analysis, Nmax): DIV 6 rat cortical cultures, 72-hours treatment, 10 uM and 100 nM, vs VEH; for dendritogenesis effect after ketanserin pretreatment: KTSN added 30 minutes before, 10-fold excess, DIV 6, 72-hours; for dendritic arbor complexity (Sholl analysis): increasing concentrations, efficacy in the nanomolar range
Description: For the dendritogenesis experiments conducted using cultured cortical neurons, E18 timed pregnant Sprague Dawley rats were obtained from Charles River Laboratories. Full culturing, staining and analysis experiments were performed as previously described with the exception that there was no media change during treatments. Dendrites were visualized using a chicken anti-MAP2 antibody (1:10,000; EnCor, CPCA-MAP2) as previously reported. DMSO and ketamine […] were used as vehicle and positive controls, respectively. For blocking experiments, ketanserin was added 30-minutes prior to addition of agonists in 10-fold excess.
as §2

Tail suspension test = type: in vivo, mice; details: i.p. injection, tested after 24 h, vs vehicle
Description: Male C57/BL6J mice (9-10 weeks of age at time of experiment) were obtained from the Jackson Lab and housed in a UCD vivarium. […] All experiments were carried out by the same experimenter who performed the handling. Twenty-four hours after treatments, animals were subjected to a tail suspension test. Animals were suspended from their tails approximately 16 cm from the top of the apparatus and 25 cm from the bottom of the apparatus. Behavior was video recorded for 6 min and analyzed later by an experimenter blinded to treatment conditions. Immobility was defined as the amount of time spent not struggling or attempting to generate momentum and was scored for the entire 6 min period. All TST sessions were performed between the hours of 08:00 and 13:00.

T1 sequence (P31645 whole entry): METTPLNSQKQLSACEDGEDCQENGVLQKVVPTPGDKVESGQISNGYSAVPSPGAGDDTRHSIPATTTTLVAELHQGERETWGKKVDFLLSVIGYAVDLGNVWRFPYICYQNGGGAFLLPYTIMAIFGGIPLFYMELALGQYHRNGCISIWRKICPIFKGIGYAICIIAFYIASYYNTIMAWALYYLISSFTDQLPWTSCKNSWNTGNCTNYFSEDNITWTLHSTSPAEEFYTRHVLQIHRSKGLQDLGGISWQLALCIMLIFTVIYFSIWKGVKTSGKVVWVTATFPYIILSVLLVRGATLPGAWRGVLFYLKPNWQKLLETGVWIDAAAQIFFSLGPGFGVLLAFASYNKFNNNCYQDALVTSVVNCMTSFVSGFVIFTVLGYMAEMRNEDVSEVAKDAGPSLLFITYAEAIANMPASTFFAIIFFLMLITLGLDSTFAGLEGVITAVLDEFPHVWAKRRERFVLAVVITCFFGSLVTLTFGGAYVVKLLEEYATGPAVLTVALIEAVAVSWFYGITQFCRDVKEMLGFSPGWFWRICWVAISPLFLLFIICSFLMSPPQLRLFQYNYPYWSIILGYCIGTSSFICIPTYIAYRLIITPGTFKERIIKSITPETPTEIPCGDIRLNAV

Row | Compound | psychlight 5-HT2A biosensor response (5-HT2A biosensor) | fear extinction test curve vs vehicle [3] | freezing during extinction training (day 2) [3] | conditioned freezing on extinction testing day (24-hours later, drug-free) [3] | head twitch response (hallucinogenic potential) [4] | locomotion at the lower doses [5] | locomotion at highest dose [5] | locomotion (total distance) in novel arena, dose dependence [5] | time spent in the center of the arena [5] | increase in body temperature (hyperthermia) [6] | dendritic spine density (rat cortical neurons [7]) | spinogenesis effect after ketanserin pretreatment (rat cortical neurons [7]) | dendritic complexity (Sholl analysis, Nmax) (rat cortical neurons [9]) | dendritogenesis effect after ketanserin pretreatment (rat cortical neurons [9]) | dendritic arbor complexity (Sholl analysis) (rat cortical neurons [9]) | other results
1 | CNC(C)Cc1ccc2c(c1)OCO2 (racemic) [SR-MDMA, S,R(+/−)-3,4-methylenedioxymethamphetamine] | – | – | – | – | – | – | – | – | – | – | – | – | – | – | – | response rate in decreasing the symptoms of PTSD [1]: 83%
2 | CC(Cc1ccc2c(c1)OCO2)N(C)C (racemic) [racemic version of LED] | – | – | – | – | – | – | – | – | – | – | – | – | – | – | – | 5-HT uptake inhibition and release (SERT [2]): moderate ability to inhibit uptake of 5-HT as well as promote its release
3 | C[C@H](Cc1ccc2c(c1)OCO2)N(C)C [LED, (R)-1-(benzo[d][1,3]dioxol-5-yl)-N,N-dimethylpropan-2-amine] | Neither LED nor R-MDMA induced a significant response | statistically lower than the vehicle control curve | neither dose influenced freezing during extinction training | the 12.5 mg/kg dose of LED resulted in reduced freezing on testing day | Neither compound elicited a significant HTR | neither of them altered changes in locomotion or had psychostimulant properties | significant decrease in locomotion | dose dependent decrease in locomotion | only the highest doss caused a decrease in time spent in the center | Neither compound induced any increases in body temperature | increases dendritic spine density | KTSN blocks the spinogenesis effects | increases in dendritic complexity | blocked by ketanserin | robustly increased dendritic arbor complexity | fear extinction, females only ([3]; separated by sex, females): females display enhanced extinction with the 12.5 mg/kg dose; fear extinction, males only ([3]; separated by sex, males): males display enhanced extinction with the 25 mg/kg dose; body temperature relative to vehicle ([6]; 50 mg/kg i.p., 30-minute time point): significant decrease in temperature; [3H]5-HT release (efflux) (SERT [8]): failed to induce [^3H]5-HT release; promotion of plasticity (Sholl analysis), comparison of enantiomers and racemates (rat cortical neurons [9]; cultured cortical neurons, FIG. 5, listed as R-MDDMA): more effect at promoting plasticity than either the S-enantiomer or the racemic mixture; also recorded: more effective than racemic MDMA; antidepressant behavioral effect (tail suspension test immobility) (Tail suspension test): produces antidepressant behavioral effects
4 | R-3,4-Methylenedioxy methamphetamine [R-MDMA, reference compound] | Neither LED nor R-MDMA induced a significant response | statistically lower than vehicle control | decreased freezing during extinction training and testing | decreased freezing during extinction training and testing | Neither compound elicited a significant HTR | neither of them altered changes in locomotion or had psychostimulant properties | exhibits psychostimulant effects | dose dependent increase in locomotion | all doses decreased time spent in the center | Neither compound induced any increases in body temperature | increases dendritic spine density, comparably to R-MDMA | KTSN blocks the spinogenesis effects | increases in dendritic complexity | blocked by ketanserin | robustly increased dendritic arbor complexity | –

— patent US20250122164A1, “N,N-[…] ANALOGS FOR TREATING BRAIN DISORDERS” (The Regents of the University of California, priority 2021, published 2025)
